Read-outs that look alike come from different tables or passages of the source.
How the values were obtained:
[1] = molecular target: T1, TmEcR (GAL4-EcR DEF with VP16-RXR partner) (Tenebrio molitor, UniProt O02035); experiment: Two-hybrid gene switch assay, luciferase reporter, TmEcR, mouse NIH3T3 cells
T1 sequence (O02035 194-491): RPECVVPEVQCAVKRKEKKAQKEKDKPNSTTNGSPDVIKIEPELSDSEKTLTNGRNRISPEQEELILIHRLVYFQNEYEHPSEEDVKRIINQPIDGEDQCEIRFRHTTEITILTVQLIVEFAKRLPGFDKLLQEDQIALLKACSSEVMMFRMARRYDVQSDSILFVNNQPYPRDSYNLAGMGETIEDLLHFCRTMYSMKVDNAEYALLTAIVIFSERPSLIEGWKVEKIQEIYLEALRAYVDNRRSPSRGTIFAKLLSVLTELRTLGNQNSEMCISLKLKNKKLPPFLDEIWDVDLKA
T1 sequence (P28704 1-520 partner): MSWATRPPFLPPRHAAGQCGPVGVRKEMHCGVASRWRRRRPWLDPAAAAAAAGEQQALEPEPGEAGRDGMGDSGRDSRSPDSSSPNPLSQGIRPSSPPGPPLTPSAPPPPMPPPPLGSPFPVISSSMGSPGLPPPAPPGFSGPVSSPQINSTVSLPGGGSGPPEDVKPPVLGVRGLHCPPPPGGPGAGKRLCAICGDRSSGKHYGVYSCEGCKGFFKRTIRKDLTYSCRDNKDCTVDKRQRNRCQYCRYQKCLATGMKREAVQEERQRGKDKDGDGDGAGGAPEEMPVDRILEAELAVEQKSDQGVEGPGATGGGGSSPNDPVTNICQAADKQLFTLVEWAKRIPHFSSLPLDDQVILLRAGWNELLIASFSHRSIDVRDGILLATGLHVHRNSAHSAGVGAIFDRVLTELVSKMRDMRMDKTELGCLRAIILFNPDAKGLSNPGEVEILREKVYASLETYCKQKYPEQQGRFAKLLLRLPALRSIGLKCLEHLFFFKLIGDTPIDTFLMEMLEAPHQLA

[2] = molecular target: T2, AmaEcR (GAL4-EcR DEF with VP16-RXR-USP chimera) (Amblyomma americanum, UniProt O44338); experiment: Two-hybrid gene switch assay, luciferase reporter, AmaEcR, mouse NIH3T3 cells
T2 sequence (O44338 255-570): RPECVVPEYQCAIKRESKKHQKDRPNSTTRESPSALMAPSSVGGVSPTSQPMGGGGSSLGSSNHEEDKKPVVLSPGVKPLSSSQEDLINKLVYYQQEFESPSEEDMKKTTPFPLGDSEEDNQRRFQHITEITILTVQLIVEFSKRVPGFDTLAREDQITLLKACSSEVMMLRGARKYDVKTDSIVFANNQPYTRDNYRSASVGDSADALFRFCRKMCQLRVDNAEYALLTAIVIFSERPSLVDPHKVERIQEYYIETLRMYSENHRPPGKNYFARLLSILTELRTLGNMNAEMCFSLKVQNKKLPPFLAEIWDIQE
T2 sequence (P28702 1-533 partner): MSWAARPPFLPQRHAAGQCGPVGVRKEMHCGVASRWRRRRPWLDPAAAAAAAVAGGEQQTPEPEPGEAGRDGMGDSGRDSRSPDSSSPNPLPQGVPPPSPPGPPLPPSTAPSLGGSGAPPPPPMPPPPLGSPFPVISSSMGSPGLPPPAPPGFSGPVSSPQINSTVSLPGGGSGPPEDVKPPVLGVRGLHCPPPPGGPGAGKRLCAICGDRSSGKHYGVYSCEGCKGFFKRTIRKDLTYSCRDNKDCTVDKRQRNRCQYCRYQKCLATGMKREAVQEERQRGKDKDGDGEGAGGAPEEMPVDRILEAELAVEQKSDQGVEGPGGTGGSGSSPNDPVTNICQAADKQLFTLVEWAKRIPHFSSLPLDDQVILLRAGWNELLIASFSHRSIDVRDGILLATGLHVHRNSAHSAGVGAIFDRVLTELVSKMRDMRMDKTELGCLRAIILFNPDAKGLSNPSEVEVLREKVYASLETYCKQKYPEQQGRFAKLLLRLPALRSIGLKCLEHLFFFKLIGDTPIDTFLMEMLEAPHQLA

[3] = molecular target: T3, BaEcR (GAL4-EcR DEF with VP16-RXR-USP chimera) (Bemisia tabaci, UniProt A0A6M3RDR8); experiment: Two-hybrid gene switch assay, luciferase reporter, BaEcR, mouse NIH3T3 cells
T3 sequence (A0A6M3RDR8 115-530): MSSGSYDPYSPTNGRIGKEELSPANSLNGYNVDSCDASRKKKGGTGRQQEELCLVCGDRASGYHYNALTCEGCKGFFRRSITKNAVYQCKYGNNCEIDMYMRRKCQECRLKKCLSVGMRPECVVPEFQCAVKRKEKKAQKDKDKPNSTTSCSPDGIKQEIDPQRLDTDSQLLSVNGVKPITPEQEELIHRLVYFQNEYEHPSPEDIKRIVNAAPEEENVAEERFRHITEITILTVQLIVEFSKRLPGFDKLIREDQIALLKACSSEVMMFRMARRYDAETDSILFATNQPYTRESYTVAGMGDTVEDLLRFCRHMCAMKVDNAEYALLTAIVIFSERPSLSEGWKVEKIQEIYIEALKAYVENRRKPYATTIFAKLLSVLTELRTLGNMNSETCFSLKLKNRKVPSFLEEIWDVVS
T3 sequence (P28702 1-533 partner): T2 sequence (P28702 1-533 partner)

[4] = molecular target: BmEcR (GAL4-EcR DEF with VP16-RXR-USP chimera) (Bombyx mori, UniProt P49881); experiment: Two-hybrid gene switch assay, luciferase reporter, BmEcR, mouse NIH3T3 cells; type: cell-based
[5] = molecular target: wild-type Drosophila melanogaster EcR (DmEcR; GAL4-EcR DEF with VP16-RXR-USP chimera) (Drosophila melanogaster, UniProt P34021); experiment: Two-hybrid gene switch assay, luciferase reporter, wild-type DmEcR, mouse NIH3T3 cells; type: cell-based
[6] = molecular target: wild-type Aedes aegypti EcR (AaEcR; GAL4-EcR DEF with VP16-RXR-USP chimera) (Aedes aegypti, UniProt P49880); experiment: Two-hybrid gene switch assay, luciferase reporter, wild-type AaEcR, mouse NIH3T3 cells; type: cell-based
[7] = molecular target: T4, MsEcR (GAL4-EcR DEF with VP16-RXR-USP chimera) (Manduca sexta, UniProt P49883); experiment: Two-hybrid gene switch assay, luciferase reporter, MsEcR, mouse NIH3T3 cells
T4 sequence (P49883 1-556): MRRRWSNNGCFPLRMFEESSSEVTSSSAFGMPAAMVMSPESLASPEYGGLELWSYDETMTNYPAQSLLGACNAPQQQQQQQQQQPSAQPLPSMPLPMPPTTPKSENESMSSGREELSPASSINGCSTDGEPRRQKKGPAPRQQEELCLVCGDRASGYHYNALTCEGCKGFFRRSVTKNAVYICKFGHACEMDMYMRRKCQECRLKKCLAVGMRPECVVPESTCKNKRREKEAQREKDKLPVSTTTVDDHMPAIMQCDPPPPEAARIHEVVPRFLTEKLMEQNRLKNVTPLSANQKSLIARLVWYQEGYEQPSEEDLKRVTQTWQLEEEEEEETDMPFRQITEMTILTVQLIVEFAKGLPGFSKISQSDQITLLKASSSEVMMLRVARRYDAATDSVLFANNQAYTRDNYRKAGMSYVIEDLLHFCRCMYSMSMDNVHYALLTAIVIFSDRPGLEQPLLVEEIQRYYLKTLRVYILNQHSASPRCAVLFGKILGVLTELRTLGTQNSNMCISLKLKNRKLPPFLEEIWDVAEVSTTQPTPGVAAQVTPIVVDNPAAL
T4 sequence (P28702 1-533 partner): T2 sequence (P28702 1-533 partner)

[8] = molecular target: T5, wild-type CfEcR (GAL4-CfEcR-DEF with VP16-RXR-USP chimera) (Choristoneura fumiferana, UniProt O77255); experiment: Two-hybrid gene switch assay, luciferase reporter, wild-type CfEcR, mouse NIH3T3 cells
T5 sequence (O77255 219-541): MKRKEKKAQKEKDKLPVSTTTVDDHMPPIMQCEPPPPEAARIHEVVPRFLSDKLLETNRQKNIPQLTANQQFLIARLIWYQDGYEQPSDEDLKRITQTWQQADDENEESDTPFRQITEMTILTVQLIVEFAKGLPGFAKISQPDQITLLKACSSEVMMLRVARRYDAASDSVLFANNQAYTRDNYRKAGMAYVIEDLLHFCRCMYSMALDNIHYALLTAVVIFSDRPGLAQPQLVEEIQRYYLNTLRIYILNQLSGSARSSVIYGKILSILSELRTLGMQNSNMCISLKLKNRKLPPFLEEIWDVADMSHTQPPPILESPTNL
T5 sequence (P28702 1-533 partner): T2 sequence (P28702 1-533 partner)

[9] = test system: NcEcR (GAL4-EcR DEF with VP16-RXR partner); experiment: Two-hybrid gene switch assay, luciferase reporter, NcEcR, mouse NIH3T3 cells
[10] = EC50, FIG. 14A/14B, GAL4-EcR(DEF)
[11] = EC50, FIG. 14A/14B, GAL4-EcR(DEF) with VP16-RXR-USP chimera
[12] = FIG. 14A/14B, GAL4-EcR(DEF) with VP16-RXR-USP chimera, read-out: EC50
[13] = EC50, FIG. 13A/13B, GAL4-EcR(DEF) with VP16-RXR-USP chimera
[14] = EC50, FIG. 16, GAL4-EcR (DEF) / VP16-RXR-USP chimera
[15] = FIG. 16, GAL4-EcR (DEF) / VP16-RXR-USP chimera, read-out: EC50
[16] = FIG. 13A/13B, BmEcR, GAL4-EcR(DEF) with VP16-RXR-USP chimera, read-out: EC50

Chain of wild-type Aedes aegypti EcR (AaEcR; GAL4-EcR DEF with VP16-RXR-USP chimera) (P49880 with tags, fused parts or gaps limits assumed, change not shown): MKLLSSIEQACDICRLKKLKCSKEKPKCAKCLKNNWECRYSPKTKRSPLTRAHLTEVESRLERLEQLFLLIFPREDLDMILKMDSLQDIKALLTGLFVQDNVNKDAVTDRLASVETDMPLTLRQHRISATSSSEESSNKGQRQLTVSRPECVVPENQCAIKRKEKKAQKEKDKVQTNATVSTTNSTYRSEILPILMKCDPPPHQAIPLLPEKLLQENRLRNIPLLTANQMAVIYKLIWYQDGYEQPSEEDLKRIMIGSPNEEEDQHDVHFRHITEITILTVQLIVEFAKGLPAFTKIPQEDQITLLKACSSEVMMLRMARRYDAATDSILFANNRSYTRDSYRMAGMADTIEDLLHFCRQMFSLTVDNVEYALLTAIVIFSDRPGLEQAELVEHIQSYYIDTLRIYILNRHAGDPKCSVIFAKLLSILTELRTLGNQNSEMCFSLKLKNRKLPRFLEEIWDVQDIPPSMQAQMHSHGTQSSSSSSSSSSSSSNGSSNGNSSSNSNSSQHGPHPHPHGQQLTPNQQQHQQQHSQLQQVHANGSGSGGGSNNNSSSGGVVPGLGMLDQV
Chain of BmEcR (GAL4-EcR DEF with VP16-RXR-USP chimera) (P49881 other isoform, or with tags, fused parts or gaps, change not shown): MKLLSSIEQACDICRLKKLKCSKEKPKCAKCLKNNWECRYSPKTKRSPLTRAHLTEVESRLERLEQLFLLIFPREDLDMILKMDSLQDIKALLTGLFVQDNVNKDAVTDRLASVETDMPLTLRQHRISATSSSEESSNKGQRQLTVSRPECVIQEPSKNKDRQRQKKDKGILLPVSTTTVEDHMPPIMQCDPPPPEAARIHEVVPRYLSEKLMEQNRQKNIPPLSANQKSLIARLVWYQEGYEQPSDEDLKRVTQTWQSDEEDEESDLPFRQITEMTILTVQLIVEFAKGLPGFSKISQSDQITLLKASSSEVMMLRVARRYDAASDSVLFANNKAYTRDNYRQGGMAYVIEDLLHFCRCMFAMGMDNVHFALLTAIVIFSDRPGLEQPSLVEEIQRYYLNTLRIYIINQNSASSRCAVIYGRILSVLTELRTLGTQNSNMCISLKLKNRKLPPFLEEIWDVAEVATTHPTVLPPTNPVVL
Chain of wild-type Drosophila melanogaster EcR (DmEcR; GAL4-EcR DEF with VP16-RXR-USP chimera) (P34021 with tags, fused parts or gaps limits assumed): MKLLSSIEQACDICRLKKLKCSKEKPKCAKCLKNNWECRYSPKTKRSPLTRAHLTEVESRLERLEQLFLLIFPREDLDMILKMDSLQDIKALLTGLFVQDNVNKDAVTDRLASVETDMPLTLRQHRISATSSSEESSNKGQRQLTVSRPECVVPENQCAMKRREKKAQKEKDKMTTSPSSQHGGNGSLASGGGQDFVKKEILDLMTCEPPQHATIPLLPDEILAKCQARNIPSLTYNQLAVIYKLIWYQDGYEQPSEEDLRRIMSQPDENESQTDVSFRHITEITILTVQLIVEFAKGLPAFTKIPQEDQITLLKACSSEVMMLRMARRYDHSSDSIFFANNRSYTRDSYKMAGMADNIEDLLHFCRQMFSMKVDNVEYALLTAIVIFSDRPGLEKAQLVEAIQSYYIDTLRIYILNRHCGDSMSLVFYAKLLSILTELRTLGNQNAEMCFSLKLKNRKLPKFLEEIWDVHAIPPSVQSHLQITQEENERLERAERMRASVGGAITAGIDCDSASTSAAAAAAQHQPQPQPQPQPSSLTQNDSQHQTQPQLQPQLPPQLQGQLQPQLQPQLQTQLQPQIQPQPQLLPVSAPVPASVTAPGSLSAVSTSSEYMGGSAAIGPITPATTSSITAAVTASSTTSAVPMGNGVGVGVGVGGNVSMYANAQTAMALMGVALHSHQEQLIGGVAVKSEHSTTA

Row | SMILES | EC50 [1, 10] [µM] | EC50 [2, 11] [µM] | EC50 [3, 11] [µM] | EC50 [5, 11] [µM] | EC50 [6, 12] [µM] | EC50 [7, 13] [µM] | EC50 [8] [µM] | EC50 ([9]; FIG. 14A/14B, GAL4-EcR(DEF)) [µM] | further results
1 | CC(C)(O)CCC(O)C(C)(O)C1CCC2(O)C3=CC(=O)C4CC(O)CCC4(C)C3CCC12C (stereo not drawn) [Compound 2-deoxy-20-hydroxyecdysone] | ~20 | ~5 | ~15 | > 33 | ~5 | ~10 | > 33 | – | EC50 ([4]; read-out: EC50): > 33 µM
2 | C=C(C)CC[C@@H](O)[C@](C)(O)[C@H]1CC[C@@]2(O)C3=CC(=O)[C@@H]4C[C@@H](O)[C@@H](O)C[C@]4(C)[C@H]3CC[C@]12C [listing 1 of 2 here] | – | – | – | – | – | 0.608 | ~12 | – | EC50 ([4]; read-out: EC50): 6.28 µM
3 | C=C(C)CC[C@@H](O)[C@](C)(O)[C@H]1CC[C@@]2(O)C3=CC(=O)[C@@H]4C[C@@H](O)[C@@H](O)C[C@]4(C)[C@H]3CC[C@]12C [listing 2 of 2 here] | 1.4 | – | 0.382 | 0.912 | – | – | – | 0.006 | EC50 [6, 11]: 0.024 µM
4 | CC(C)(O)CC[C@H]1OC(C)(C)O[C@]1(C)[C@H]1CC[C@@]2(O)C3=CC(=O)[C@@H]4C[C@@H](O)[C@@H](O)C[C@]4(C)[C@H]3CC[C@]12C [20-hydroxyecdysone-20,22-acetonide] | > 33 | ~20 | > 33 | > 33 | ~12 | ~12 | – | ~10 | EC50 ([1]; EC50, FIG. 16, GAL4-EcR (DEF)): ~3 µM; EC50 [2, 14]: ~1 µM; EC50 [3, 14]: 8.57 µM; EC50 [5, 14]: ~12 µM; EC50 [6, 15]: 2.38 µM; EC50 ([7]; EC50, FIG. 15, GAL4-EcR (DEF) / VP16-RXR-USP chimera): ~12 µM
5 | CC(C)CC[C@@H](O)[C@](C)(O)[C@H]1CC[C@@]2(O)C3=CC(=O)[C@]4(O)C[C@@H](O)[C@@H](O)C[C@]4(C)[C@H]3[C@H](O)C[C@]12C [Mur A, muristerone A, reference compound] | ~5 | 0.128 | 0.829 | 0.058 | – | 0.66 | – | – | EC50 ([4]; EC50, FIG. 13A/13B, BmEcR, GAL4-EcR(DEF) with VP16-RXR-USP chimera): 2.98 µM; EC50 ([5]; EC50, FIG. 4C): 0.112 µM; EC50 [6, 11]: 0.023 µM
6 | CC(C)(O)CC[C@@H](O)[C@](C)(O)[C@H]1CC[C@@]2(O)C3=CC(=O)[C@@H]4C[C@@H](O)[C@@H](O)C[C@]4(C)[C@H]3CC[C@]12C [Compound 20-hydroxyecdysone] | ~15 | – | ~5 | – | – | – | – | ~0.8 | EC50 [2, 14]: ~0.8 µM; EC50 [3, 14]: 5.35 µM; EC50 [5, 15]: ~15 µM; EC50 [6, 15]: 4.38 µM; EC50 ([9]; FIG. 16, GAL4-EcR (DEF)): 0.6 µM
7 | CC(C)(O)CC[C@@H](O)[C@](C)(O)[C@H]1CC[C@@]2(O)C3=CC(=O)[C@@H]4C[C@H](O)[C@@H](O)C[C@]4(C)[C@H]3CC[C@]12C | > 33 | ~10 | ~20 | – | ~8 | ~10 | – | 4.84 | EC50 [4, 16]: > 33 µM; EC50 [5, 12]: ~20 µM
8 | CC(C)(O)CC[C@@H](O)[C@](C)(O)[C@H]1CC[C@@]2(O)C3=CC(=O)[C@H]4C[C@@H](O)[C@@H](O)C[C@]4(C)[C@H]3CC[C@]12C [(5a-H)-20-hydroxyecdysone] | > 33 | > 33 | > 33 | – | ~20 | > 33 | – | ~15 | EC50 [4, 16]: > 33 µM; EC50 [5, 12]: > 33 µM
9 | CC(C)(O)CCCC(C)(O)C1CCC2(O)C3=CC(=O)C4CC(O)C(O)CC4(C)C3CCC12C (stereo not drawn) | ~20 | ~10 | ~10 | ~20 | – | ~15 | > 33 | 3.04 | EC50 [4]: > 33 µM
